According to US7217730B2, “Method for the use of pyranoindole derivatives to treat infection with Hepatitis C virus” (Wyeth, priority 2002, dated 2007):
Where two headings read alike, the source gives them in different places.

Target: T1, NS5B from the BK strain (genotype 1b) (Hepatitis C virus genotype 1b, UniProt P26663)
T1 construct: NS5B from the BK strain (genotype 1b) is expressed in E. coli as a protein in which the 21 C-terminal amino acids are replaced; made in house; host or cells: E. coli
T1 sequence (P26663 2420-2989): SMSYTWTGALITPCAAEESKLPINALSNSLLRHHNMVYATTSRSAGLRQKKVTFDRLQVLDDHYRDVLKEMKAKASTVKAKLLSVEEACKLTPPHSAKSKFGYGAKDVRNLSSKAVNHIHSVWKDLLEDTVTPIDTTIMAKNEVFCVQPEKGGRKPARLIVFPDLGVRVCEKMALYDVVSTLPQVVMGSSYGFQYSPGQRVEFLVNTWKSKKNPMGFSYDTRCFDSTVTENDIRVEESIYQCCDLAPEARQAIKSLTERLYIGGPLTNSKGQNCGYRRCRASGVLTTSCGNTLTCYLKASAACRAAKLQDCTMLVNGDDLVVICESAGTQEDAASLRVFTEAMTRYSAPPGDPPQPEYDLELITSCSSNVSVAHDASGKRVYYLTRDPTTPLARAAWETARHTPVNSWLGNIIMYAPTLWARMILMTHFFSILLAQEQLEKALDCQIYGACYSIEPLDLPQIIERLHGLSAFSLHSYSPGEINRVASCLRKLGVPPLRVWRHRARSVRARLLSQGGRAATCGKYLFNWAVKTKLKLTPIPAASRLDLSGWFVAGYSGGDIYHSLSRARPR
Test: Hepatitis C polymerase inhibition, NS5B BK strain, 33P-GTP filter assay
Type: biochemical
Conditions: for inhibition at 20 µM: read-out: HCV pol % inh at 20 μM; for IC50: NS5B BK strain, read-out: HCV pol BK IC50
Procedure, shortened: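 Radiolabelled RNA synthesis was measured by filter capture and scintillation counting after EDTA stop. His-tagged, C-terminally truncated (Δ21) genotype 1b BK NS5B from E. coli, pre-exposed to compound for 15 min, copied a self-primed RNA template (~3 nM) with α-[33P]-GTP for 2 h at room temperature.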

Compound: C/C=C/CCC1(CC(=O)O)OCCc2c1[nH]c1c(Cl)cc(C)c(C#N)c21 (stereo not shown) [Example 186, {8-chloro-5-cyano-6-methyl-1-[(3E)-pent-3-enyl]-1,3,4,9-tetrahydropyrano[3,4-b]indol-1-yl}acetic acid]
- inhibition at 20 µM (Table 1A, 20 μM compound): 2%
- IC50 (Table 1A): > 5 µM

Compound: O=C(O)CC1(c2ccccc2)OCCc2c1[nH]c1c(Cl)cc(Cl)cc21 (stereo not shown) [Example 105, (6,8-dichloro-1-phenyl-1,3,4,9-tetrahydropyrano[3,4-b]indol-1-yl)acetic acid]
- inhibition at 20 µM (Table 1A, 20 μM compound): 57%
- IC50 (Table 1A): > 5 µM

Compound: CC(C)C1(CC(=O)O)OCCc2c1[nH]c1c(C(F)(F)F)cccc21 (stereo not shown) [Example 118, [1-isopropyl-8-(trifluoromethyl)-1,3,4,9-tetrahydropyrano[3,4-b]indol-1-yl]acetic acid]
- inhibition at 20 µM (Table 1A, 20 μM compound): 10%
- IC50 (Table 1A): > 20 µM

Compound: Cc1ccc(F)c2c3c([nH]c12)C(CC(=O)O)(c1ccccc1)OCC3 (stereo not shown) [Example 146, (5-fluoro-8-methyl-1-phenyl-1,3,4,9-tetrahydropyrano[3,4-b]indol-1-yl)acetic acid]
- inhibition at 20 µM (Table 1A, 20 μM compound): 45%
- IC50 (Table 1A): > 20 µM

Compound: Cc1cc(F)c(Br)c2c3c([nH]c12)C(C)(CC(=O)O)OCC3 (stereo not shown) [Example 199, (5-bromo-6-fluoro-1,8-dimethyl-1,3,4,9-tetrahydropyrano[3,4-b]indol-1-yl)acetic acid]
- inhibition at 20 µM (Table 1A, 20 μM compound): 52%
- IC50 (Table 1A): > 5 µM

Compound: CC(C)CCCC1(CC(=O)O)OCCc2c1[nH]c1c(Cl)ccc(Cl)c21 (stereo not shown) [Example 54, [5,8-dichloro-1-(4-methylpentyl)-1,3,4,9-tetrahydropyrano[3,4-b]indol-1-yl]acetic acid]
- inhibition at 20 µM (Table 1A, 20 μM compound): 6%
- IC50 (Table 1A): > 20 µM

Compound: CCCCC1(CC(=O)O)OCCc2c1[nH]c1c(F)ccc(F)c21 (stereo not shown) [Example 126, (1-butyl-5,8-difluoro-1,3,4,9-tetrahydropyrano[3,4-b]indol-1-yl)acetic acid]
- inhibition at 20 µM (Table 1A, 20 μM compound): 35%
- IC50 (Table 1A): > 20 µM

Compound: O=C(O)CC1(c2ccccc2)OCCc2c1[nH]c1c(C(F)(F)F)cccc21 (stereo not shown) [Example 121, [1-phenyl-8-(trifluoromethyl)-1,3,4,9-tetrahydropyrano[3,4-b]indol-1-yl]acetic acid]
- inhibition at 20 µM (Table 1A, 20 μM compound): < 5%
- IC50 (Table 1A): > 20 µM

Compound: CCCC1(CC(=O)O)OCCc2c1[nH]c1c(Cl)cc(Cl)c(Cl)c21 (stereo not shown) [Example 156, (5,6,8-trichloro-1-propyl-1,3,4,9-tetrahydropyrano[3,4-b]indol-1-yl)acetic acid]
- inhibition at 20 µM (Table 1A, 20 μM compound): 88%
- IC50 (Table 1A): 0.08 µM

Compound: CC(C)C1(CC(=O)O)OCCc2c1[nH]c1c(Cl)cccc21 (stereo not shown) [Example 75, (8-chloro-1-isopropyl-1,3,4,9-tetrahydropyrano[3,4-b]indol-1-yl)acetic acid]
- inhibition at 20 µM (Table 1A, 20 μM compound): 17%
- IC50 (Table 1A): > 20 µM

Compound: O=C(O)CC1(c2ccoc2)OCCc2c1[nH]c1cccc(Br)c21 (stereo not shown) [Example 25, [5-bromo-1-(3-furyl)-1,3,4,9-tetrahydropyrano[3,4-b]indol-1-yl]acetic acid]
- inhibition at 20 µM (Table 1A, 20 μM compound): 33%
- IC50 (Table 1A): > 20 µM

Compound: O=C(O)CC1(c2ccc(C(=O)O)cc2)OCCc2c1[nH]c1ccc(Cl)c(Cl)c21 (stereo not shown) [Example 113, 4-[1-(carboxymethyl)-5,6-dichloro-1,3,4,9-tetrahydropyrano[3,4-b]indol-1-yl]benzoic acid]
- IC50 (Table 1A): 0.26 µM
- inhibition at 20 µM: 35%

Compound: Cc1ccc(F)c2c3c([nH]c12)C(C)(CC(=O)O)OCC3 (stereo not shown) [Example 140, (5-fluoro-1,8-dimethyl-1,3,4,9-tetrahydropyrano[3,4-b]indol-1-yl)acetic acid]
- inhibition at 20 µM (Table 1A, 20 μM compound): 28%
- IC50 (Table 1A): > 20 µM

Compound: CC(C)C1(CC(=O)O)OCCc2c1[nH]c1c(Br)ccc(Br)c21 (stereo not shown) [Example 212, (5,8-dibromo-1-isopropyl-1,3,4,9-tetrahydropyrano[3,4-b]indol-1-yl)acetic acid]
- inhibition at 20 µM (Table 1A, 20 μM compound): 81%
- IC50 (Table 1A): 0.4 µM

Compound: CCCC1(CC(=O)O)OCCc2c1[nH]c1c(-c3ccc(OC)cc3)cccc21 (stereo not shown) [Example 91, [8-(4-methoxyphenyl)-1-propyl-1,3,4,9-tetrahydropyrano[3,4-b]indol-1-yl]acetic acid]
- inhibition at 20 µM (Table 1A, 20 μM compound): < 5%
- IC50 (Table 1A): > 20 µM

Compound: CCC[C@@]1(CC(=O)O)OCCc2c1[nH]c1c(C)ccc(C#N)c21 [Example 3, [(S)-5-cyano-8-methyl-1-propyl-1,3,4,9-tetrahydropyrano[3,4-b]indol-1-yl]acetic acid]
- IC50 (Table 1A): 2.4 µM

Compound: (5-cyano-8-fluoro-6-methyl-1-propyl-1,3,4,9-tetrahydropyrano[3,4-b]indol-1-yl)acetic acid [Example 221]
- HCV pol % inh at 20 μM (Table 1A, 20 μM compound): 81%
- IC50 (Table 1A): 0.43 µM

Compound: CCCC1(CC(=O)O)OCCc2c1[nH]c1cccc(-c3ccc(Cl)cc3Cl)c21 (stereo not shown) [Example 35, [5-(2,4-dichlorophenyl)-1-propyl-1,3,4,9-tetrahydropyrano[3,4-b]indol-1-yl]acetic acid]
- inhibition at 20 µM (Table 1A, 20 μM compound): 35%
- IC50 (Table 1A): > 20 µM

Compound: O=C(O)CC1(c2ccccc2F)OCCc2c1[nH]c1c(Cl)ccc(Cl)c21 (stereo not shown) [Example 56, [5,8-dichloro-1-(2-fluorophenyl)-1,3,4,9-tetrahydropyrano[3,4-b]indol-1-yl]acetic acid]
- inhibition at 20 µM (Table 1A, 20 μM compound): 3%
- IC50 (Table 1A): > 20 µM

Compound: CCCCC1(CC(=O)O)OCCc2c1[nH]c1c(C)cc(F)c(Br)c21 (stereo not shown) [Example 203, (5-bromo-1-butyl-6-fluoro-8-methyl-1,3,4,9-tetrahydropyrano[3,4-b]indol-1-yl)acetic acid]
- inhibition at 20 µM (Table 1A, 20 μM compound): 94%
- IC50 (Table 1A): 0.19 µM

Compound: CCCC1(CC(=O)O)OCCc2c1[nH]c1c(F)ccc(-c3ccc(C)cc3)c21 (stereo not shown) [Example 148, [8-fluoro-5-(4-methylphenyl)-1-propyl-1,3,4,9-tetrahydropyrano[3,4-b]indol-1-yl]acetic acid]
- inhibition at 20 µM (Table 1A, 20 μM compound): 47%
- IC50 (Table 1A): > 20 µM

Compound: CCCC1(CC(=O)O)OCCc2c1[nH]c1cccc(-c3ccc(-c4ccccc4)cc3)c21 (stereo not shown) [Example 39, [5-(1,1′-biphenyl-4-yl)-1-propyl-1,3,4,9-tetrahydropyrano[3,4-b]indol-1-yl]acetic acid]
- inhibition at 20 µM (Table 1A, 20 μM compound): 7%
- IC50 (Table 1A): > 20 µM

Compound: CCC[C@@]1(CC(=O)O)OCCc2c1[nH]c1c(F)ccc(C#N)c21 [Example 6, [(S)-5-cyano-8-fluoro-1-propyl-1,3,4,9-tetrahydropyrano[3,4-b]indol-1-yl]acetic acid]
- IC50 (Table 1A): 5.7 µM

Compound: CCC1(CC(=O)O)OCCc2c1[nH]c1c(C)ccc(C)c21 (stereo not shown) [Example 138, (1-ethyl-5,8-dimethyl-1,3,4,9-tetrahydropyrano[3,4-b]indol-1-yl)acetic acid]
- inhibition at 20 µM (Table 1A, 20 μM compound): 38%
- IC50 (Table 1A): > 20 µM

Compound: N#Cc1cccc2[nH]c3c(c12)CCOC3(CC(=O)O)c1cccc([N+](=O)[O-])c1 (stereo not shown) [Example 65, [5-cyano-1-(3-nitrophenyl)-1,3,4,9-tetrahydropyrano[3,4-b]indol-1-yl]acetic acid]
- inhibition at 20 µM (Table 1A, 20 μM compound): 27%
- IC50 (Table 1A): > 20 µM

Compound: CC(C)C1(CC(=O)O)OCCc2c1[nH]c1c(Cl)ccc(Cl)c21 (stereo not shown) [Example 51, (5,8-dichloro-1-isopropyl-1,3,4,9-tetrahydropyrano[3,4-b]indol-1-yl)acetic acid]
- inhibition at 20 µM (Table 1A, 20 μM compound): 84%
- IC50 (Table 1A): 7 µM

Compound: CCCC1(CC(=O)O)OCCc2c1[nH]c1c(F)ccc(I)c21 (stereo not shown) [Example 215, (8-fluoro-5-iodo-1-propyl-1,3,4,9-tetrahydropyrano[3,4-b]indol-1-yl)acetic acid]
- inhibition at 20 µM (Table 1A, 20 μM compound): 86%
- IC50 (Table 1A): 0.32 µM
